Data: ChEMBL document CHEMBL4382251, “A Pair of Enantiomeric Bis- seco-abietane Diterpenoids from Cryptomeria fortunei” (J Nat Prod, 2018)

Legend:
Type in all cases: functional, cell-based
SGC-7901 = experiment: Antiproliferative activity against human SGC7901 cells after 72 hrs by sulforhodamine B assay; conditions: SGC-7901, 72 h
HL-60 = experiment: Antiproliferative activity against human HL60 cells after 72 hrs by CCK8 assay; conditions: HL-60, 72 h
A549 = experiment: Antiproliferative activity against human A549 cells after 72 hrs by sulforhodamine B assay; conditions: A549, 72 h

IC50 (SGC-7901) [µM]	IC50 (HL-60) [µM]	IC50 (A549) [µM]	Structure (SMILES)
47.5	41.2	48.6	CC(=O)Oc1cc2c(CC[C@@H](O)C(C)(C)O)c(C)ccc2cc1C(C)C
> 100	> 100	> 100	Cc1ccc(/C=C(\C(=O)O)C(C)C)c2c1CC[C@@H](C(C)(C)O)OC2=O
45.8	21.7	50.5	CC(=O)Oc1cc2c(CC[C@H](O)C(C)(C)O)c(C)ccc2cc1C(C)C
> 100	> 100	> 100	Cc1ccc(/C=C(\C(=O)O)C(C)C)c2c1CC[C@H](C(C)(C)O)OC2=O
34.4	20.8	25.5	CC(=O)Oc1cc2c(CCC=C(C)C)c(C)ccc2cc1C(C)C

More lines, now with the values behind:

Structure (SMILES)	IC50 (SGC-7901) [µM]	IC50 (HL-60) [µM]	IC50 (A549) [µM]
Cc1ccc2cc(C(C)C)c(O)cc2c1CC[C@@H]1OC(C)(C)OC1(C)C	31.7	45.5	26.2
CC(=O)Oc1cc2c(CC[C@H]3OC(C)(C)OC3(C)C)c(C)ccc2cc1C(C)C	36.7	17.2	28.9
CC(=O)Oc1cc2c(CC[C@@H]3OC(C)(C)OC3(C)C)c(C)ccc2cc1C(C)C	88.9	16	68.5
Cc1ccc2cc(C(C)C)c(O)cc2c1CC[C@H]1OC(C)(C)OC1(C)C	33.1	49.4	23.5
CC(=O)Oc1cc2c(cc1C(C)C)C(=O)C=C1C(C)(C)CCCC12C (single isomer, unassigned)	22.9	25.7	26.9
COc1cc2c(cc1C(C)C)C(=O)C=C1C(C)(C)CCCC12C (single isomer, unassigned)	> 100	> 100	> 100
